Legend:
[1] = target: Nox2 (Homo sapiens (Human), UniProt P04839); assay: Nox2 inhibition in human neutrophils, isoluminol-dependent chemiluminescence; assay type: cell-based; set-up: key to IC50 Nox2: The sign “—” stands for “inactive”; settings: PMA stimulated human neutrophils
Protocol: (§1) HEK293 overexpressing Nox4 (CJ Nox4) cells were purchased from Redoxis, Lund, Sweden. HEK 293 cells expressing Nox5, Nox3 (HEK TRex) and CHO cells expressing Nox1, were a kind gift from Vincent Jaque Center Medical Universitaire, Geneva, Switzerland. Nox2 expressed in isolated neutrophils were isolated from whole blood (human), as previously described (Anvari E, et al., Free Radic Res 2015; 49:1308-1318).
Compounds of the invention were tested for selectivity against Nox2 in isolated neutrophils from whole blood (human), as previously described (Anvari E, et al., vide supra). Levels of ROS from PMA stimulated primary human neutrophils were measured using isoluminol-dependent chemiluminescence. […] The dye is excited by ROS and the light emitted when the excited molecules return to the ground state, relative to the amount of released ROS, is measured. This reaction is catalyzed and amplified by peroxidases. […] Compounds of the invention and GKT136901 were diluted at 4× working concentration and titrated from 100 μM to 0.006 μM in 1:4 steps as final concentrations. DPI was diluted in isoluminol buffer at 4× working concentration titrated from 10 μM to 0.0006 μM as final concentrations. PMA was diluted in isoluminol buffer at 4× working concentration for a final concentration of 30 ng/ml. […] Luminescence was detected using FluoStar Optima (BMG, Labtech). The isoluminol buffer was prepared immediately prior to addition to test plate. The buffer contained HRP fraction with or without PMA (30 ng/ml). Stock solutions at 6 μg/ml (PMA in HBSS), 3 μg/ml (PMA in DMSO) and 24 mM (DPI) were used and further diluted at the day of analysis to 4× working concentrations in HBSS with or without DMSO.

[2] = target: Nox1 (Homo sapiens (Human), UniProt Q9Y5S8); assay: Amplex Red assay of Nox1 expressing CHO cells; assay type: cell-based; set-up: key to IC50 Nox1: The sign “—” stands for “inactive”
Sequence of Nox1 (Q9Y5S8 whole entry): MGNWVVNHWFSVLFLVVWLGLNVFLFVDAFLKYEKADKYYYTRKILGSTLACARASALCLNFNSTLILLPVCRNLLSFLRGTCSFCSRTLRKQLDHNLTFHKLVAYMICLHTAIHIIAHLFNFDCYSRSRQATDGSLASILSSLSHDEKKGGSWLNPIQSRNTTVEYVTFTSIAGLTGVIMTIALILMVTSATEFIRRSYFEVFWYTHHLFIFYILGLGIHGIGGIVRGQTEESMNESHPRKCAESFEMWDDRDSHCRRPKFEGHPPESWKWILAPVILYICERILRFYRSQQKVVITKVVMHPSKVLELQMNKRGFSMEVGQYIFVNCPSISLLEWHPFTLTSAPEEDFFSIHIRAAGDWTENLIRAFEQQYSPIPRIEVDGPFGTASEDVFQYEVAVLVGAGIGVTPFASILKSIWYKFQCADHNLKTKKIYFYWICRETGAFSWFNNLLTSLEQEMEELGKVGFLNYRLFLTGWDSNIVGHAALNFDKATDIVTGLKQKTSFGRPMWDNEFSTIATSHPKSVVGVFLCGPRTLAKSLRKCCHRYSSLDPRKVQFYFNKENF
Sequence of Nox1 (P13498 2-195 partner): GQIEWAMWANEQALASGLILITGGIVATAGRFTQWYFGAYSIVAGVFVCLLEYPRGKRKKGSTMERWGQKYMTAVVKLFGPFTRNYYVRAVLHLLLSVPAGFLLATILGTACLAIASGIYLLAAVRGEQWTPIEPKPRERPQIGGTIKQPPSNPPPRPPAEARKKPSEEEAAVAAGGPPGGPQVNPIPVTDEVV
Protocol: as §1
CHO cells expressing Nox1 were cultured in DMEM 12 medium (DMEM/F12) supplemented with FBS (10%), penicillin (100 U/ml) and streptomycin (100 μg/ml) at 37° C. in air with 5% CO2.
(§2) Reactive oxygen produced in whole cells or in membrane preparation of Nox1, Nox3, Nox4, Nox5 and xanthine oxidase and glucose oxidase were determined using Amplex Red as detection probe of formed H2O2. Amplex Red (10-acetyl-3,7-dihydroxyphenoxazine) in combination with HRP and co-factors reacts with H2O2 in a 1:1 stoichiometry to form a highly fluorescent resorufin excitated at 544 nm producing emission at 590 nm.
(§3) Adherent cells (CHO, HEK) were collected by trypsinization, centrifuged, washed with HBSS, counted, and resuspended in HBSS. Cells were seeded in 96-well black flat bottom plates at a density of 50,000-100,000 cells/well. All compounds were dissolved in DMSO and concentrations ranging from 0.003 to 200 μM were tested in Nox cellular assays with a final concentration of DMSO of 1%. Cells were incubated at 37° C. with the compounds for 30 minutes before measurement. Cells expressing Nox1 and Nox2 were activated with the PKC activator PMA (0.1 μM). Nox5 was activated with the Ca2+ ionophore ionomycin (1 μM) and further enforced with PMA. The CJ HEK 293 cells overexpressed Nox4 constitutively. In the HTS screen HEK 293 TRex was used and tetracycline ([…]) was added 18 h before measurement to induce Nox4 expression. Production of hydrogen peroxide by Nox in intact cells was measured using Amplex Red fluorescence as described by Jaquet V, et al., Br J Pharmacol 2011; 164:507-520. Assay reagents including HRP ([…]) and Amplex Red (50 μM) were added to initiate production of hydrogen peroxide. Fluorescence was read in a fluorescence plate reader at 37° C. every minute between 30-60 minutes.

[3] = DPPH redox assay; set-up: key: The sign “—” stands for “inactive”; settings: redox activity control
Protocol: DPPH, a well-known sensitive chemical of monitoring reactions involving radicals described by Xiong Q, et al., Biol Pharm Bull 1996; 19:1580-1585, was used as control to exclude any redox active compound. DPPH was incubated with decreasing concentrations (200-0.003 μM) of compounds of the invention or prior art compound GKT136901 (as a positive control). The plate was kept in the dark for 60 min, after which the absorbance of the solution was measured at 518 nm.

[4] = target: xanthine oxidase (Bos taurus (Bovine), UniProt P80457); assay: Amplex Red xanthine oxidase (XO) assay; assay type: biochemical; set-up: key: The sign “—” stands for “inactive”
Sequence of xanthine oxidase (P80457 whole entry): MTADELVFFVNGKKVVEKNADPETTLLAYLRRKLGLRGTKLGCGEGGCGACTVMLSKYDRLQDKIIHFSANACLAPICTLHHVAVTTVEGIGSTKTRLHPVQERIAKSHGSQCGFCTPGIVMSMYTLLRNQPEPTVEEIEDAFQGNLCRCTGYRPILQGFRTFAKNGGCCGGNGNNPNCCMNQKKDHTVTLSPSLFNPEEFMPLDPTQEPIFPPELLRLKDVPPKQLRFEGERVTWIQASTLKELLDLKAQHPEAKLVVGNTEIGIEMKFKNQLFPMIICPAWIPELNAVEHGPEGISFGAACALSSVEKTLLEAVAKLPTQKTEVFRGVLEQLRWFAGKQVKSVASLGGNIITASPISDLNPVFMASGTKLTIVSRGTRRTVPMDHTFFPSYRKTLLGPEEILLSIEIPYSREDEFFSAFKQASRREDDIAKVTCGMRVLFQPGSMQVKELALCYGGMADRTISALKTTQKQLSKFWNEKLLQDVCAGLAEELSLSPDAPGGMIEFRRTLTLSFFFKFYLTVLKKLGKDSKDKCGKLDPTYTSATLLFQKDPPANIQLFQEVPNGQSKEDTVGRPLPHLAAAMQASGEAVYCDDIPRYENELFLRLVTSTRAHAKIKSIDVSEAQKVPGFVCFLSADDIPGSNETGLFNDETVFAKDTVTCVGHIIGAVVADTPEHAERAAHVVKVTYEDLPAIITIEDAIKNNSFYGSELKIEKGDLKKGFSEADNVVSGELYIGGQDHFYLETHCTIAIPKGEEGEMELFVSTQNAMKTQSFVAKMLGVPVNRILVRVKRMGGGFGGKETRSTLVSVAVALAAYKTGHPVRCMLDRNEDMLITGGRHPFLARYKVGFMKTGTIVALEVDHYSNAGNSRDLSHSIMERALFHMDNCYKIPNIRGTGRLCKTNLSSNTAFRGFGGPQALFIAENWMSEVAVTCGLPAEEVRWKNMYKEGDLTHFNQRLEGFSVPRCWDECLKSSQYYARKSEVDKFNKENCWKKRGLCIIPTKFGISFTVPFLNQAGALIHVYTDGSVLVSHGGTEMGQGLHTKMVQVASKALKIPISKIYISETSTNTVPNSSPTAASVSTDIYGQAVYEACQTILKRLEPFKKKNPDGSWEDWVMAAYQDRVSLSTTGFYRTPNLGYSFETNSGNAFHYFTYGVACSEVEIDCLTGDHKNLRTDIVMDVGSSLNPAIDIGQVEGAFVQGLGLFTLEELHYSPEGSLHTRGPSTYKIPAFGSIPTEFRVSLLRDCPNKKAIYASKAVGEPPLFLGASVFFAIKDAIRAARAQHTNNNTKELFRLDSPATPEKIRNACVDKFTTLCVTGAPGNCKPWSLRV
Protocol: as §2
The assay was designed for Amplex Red analysis of production of hydrogen peroxide. Test compounds were incubated with 5 mU/ml bovine derived xanthine oxidase for 15 min at room temperature followed by the addition of substrate and detection mix (final concentrations of 0.2 U/ml HRP, 5 μM hypoxanthine, and 50 μM Amplex Red). As described by Hirano K et al., Antioxid Redox Signal 2015 10; 23:358-374, production of hydrogen peroxide was followed by fluorescence detection during 30 min at 37° C. in a plate reader that use excitation at 544 nm producing emission at 590 nm.

[5] = target: hNox4 (Homo sapiens (Human), UniProt Q9NPH5); assay: Amplex Red assay of intact Nox4 expressing HEK293 cells; assay type: cell-based; settings: read-out: IC50 Nox4
Sequence of hNox4 (Q9NPH5 whole entry): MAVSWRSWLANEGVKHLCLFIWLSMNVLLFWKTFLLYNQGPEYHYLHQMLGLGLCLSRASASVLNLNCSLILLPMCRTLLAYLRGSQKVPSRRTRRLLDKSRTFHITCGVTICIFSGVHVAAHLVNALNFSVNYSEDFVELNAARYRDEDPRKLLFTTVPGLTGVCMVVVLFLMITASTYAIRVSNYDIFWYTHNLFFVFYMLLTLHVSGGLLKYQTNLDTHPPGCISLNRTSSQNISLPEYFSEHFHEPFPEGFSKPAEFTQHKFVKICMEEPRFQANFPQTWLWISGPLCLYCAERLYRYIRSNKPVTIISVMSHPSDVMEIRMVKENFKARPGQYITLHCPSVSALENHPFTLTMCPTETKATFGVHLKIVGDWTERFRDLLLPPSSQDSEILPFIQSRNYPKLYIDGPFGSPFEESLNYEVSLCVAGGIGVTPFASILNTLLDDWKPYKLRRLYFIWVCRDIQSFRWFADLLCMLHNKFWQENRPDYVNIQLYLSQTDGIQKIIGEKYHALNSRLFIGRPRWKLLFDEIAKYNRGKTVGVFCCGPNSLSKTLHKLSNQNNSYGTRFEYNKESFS
Sequence of hNox4 (P13498 2-195 partner): as the sequence (P13498 2-195 partner) above
Protocol: as §1
HEK293 cells (CJ Nox4) were cultured in RPMI 1640 with Glutamax supplemented with FBS (10%), penicillin (100 U/ml) and streptomycin […] at 37° C. in air with 5% CO2. Every third passage 200 µg/ml neomycin were supplied in growth medium as selective agent.
as §2, §3

[6] = target: Nox5 (Homo sapiens (Human), UniProt Q96PH1); assay: Amplex Red assay of Nox5 expressing HEK cells; assay type: cell-based; set-up: key: The sign “—” stands for “inactive”
Sequence of Nox5 (Q96PH1 whole entry): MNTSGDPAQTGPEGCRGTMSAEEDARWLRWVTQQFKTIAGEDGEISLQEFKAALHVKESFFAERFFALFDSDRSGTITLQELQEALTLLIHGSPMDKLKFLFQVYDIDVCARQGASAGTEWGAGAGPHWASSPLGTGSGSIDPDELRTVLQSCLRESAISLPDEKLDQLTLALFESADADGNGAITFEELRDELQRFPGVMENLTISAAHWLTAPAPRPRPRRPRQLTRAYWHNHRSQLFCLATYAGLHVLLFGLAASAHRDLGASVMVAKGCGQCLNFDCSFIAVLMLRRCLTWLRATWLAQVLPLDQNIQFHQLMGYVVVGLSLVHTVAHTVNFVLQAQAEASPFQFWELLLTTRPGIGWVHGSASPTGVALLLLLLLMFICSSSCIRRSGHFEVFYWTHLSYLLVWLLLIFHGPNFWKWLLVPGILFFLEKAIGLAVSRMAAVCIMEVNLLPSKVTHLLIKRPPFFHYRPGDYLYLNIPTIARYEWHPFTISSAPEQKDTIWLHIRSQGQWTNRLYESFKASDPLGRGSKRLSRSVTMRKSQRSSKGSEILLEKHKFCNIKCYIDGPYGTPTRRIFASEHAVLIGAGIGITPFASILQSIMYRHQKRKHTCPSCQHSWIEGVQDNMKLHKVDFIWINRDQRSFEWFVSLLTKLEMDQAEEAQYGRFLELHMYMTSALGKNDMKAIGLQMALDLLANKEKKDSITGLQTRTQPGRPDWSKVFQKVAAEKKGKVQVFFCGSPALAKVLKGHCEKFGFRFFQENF
From the text: as §1
HEK293T cells expressing tetracycline-inducible human (Nox3 or Nox4) and HEK293 cells stably expressing human Nox5 were generated as described previously (Serrander et al., 2007a,b). HEK cells were cultured in Dulbecco's modified Eagle medium (DMEM) with 4.5 g/l glucose, supplemented with FBS (10%), penicillin (100 U/ml) and streptomycin […] at 37° C. in air with 5% CO2.
as §2, §3

[7] = tested on: Human islet cells; assay: Effects on human islet cell viability; assay type: cell-based; settings: 48 h, inhibitor 2 μM; for human islet cell death with cytokines: IL-1β (20 ng/ml)+IFN-γ (20 ng/ml); for human islet cell death with high glucose+palmitate: palmitate (1.5 mM)+high glucose (20 mM)
Protocol: Human islet cells were incubated at control condition, with the cytokines IL-1β (20 ng/ml)+IFN-γ (20 ng/ml), or with palmitate (1.5 mM+2% BSA)+high glucose (20 mM) (PH) for 2 days with or without Nox1 inhibitor ML-171 (2 μM), Nox2 inhibitor Phos-I2 (2 μM) or Example 17 (1 μM). Islets were photographed in an inverted fluorescence microscope and the intensities of red (PI) and blue (Bisbenzimide) signals were quantified using Image J software. Results are indicated as mean±S.E.M for 7 human islet donors.

Sequence of Nox2 (P04839 2-570): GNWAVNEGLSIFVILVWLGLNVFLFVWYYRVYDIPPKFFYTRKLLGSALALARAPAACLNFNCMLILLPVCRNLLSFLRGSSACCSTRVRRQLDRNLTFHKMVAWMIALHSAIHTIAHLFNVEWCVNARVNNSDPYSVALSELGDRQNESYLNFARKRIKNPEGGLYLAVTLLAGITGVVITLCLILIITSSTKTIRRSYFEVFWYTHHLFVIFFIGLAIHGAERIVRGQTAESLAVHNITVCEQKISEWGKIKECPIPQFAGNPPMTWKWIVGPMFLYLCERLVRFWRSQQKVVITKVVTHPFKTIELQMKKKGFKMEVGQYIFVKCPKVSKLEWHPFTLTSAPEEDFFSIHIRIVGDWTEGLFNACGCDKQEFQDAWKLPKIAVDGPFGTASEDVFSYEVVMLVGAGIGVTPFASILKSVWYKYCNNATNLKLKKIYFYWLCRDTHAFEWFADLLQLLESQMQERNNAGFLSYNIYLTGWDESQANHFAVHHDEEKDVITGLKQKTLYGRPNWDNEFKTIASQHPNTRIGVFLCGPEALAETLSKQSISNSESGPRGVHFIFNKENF
Sequence of Nox2 (P13498 2-195 partner): as the sequence (P13498 2-195 partner) above

Row | SMILES | IC50 Nox2 [1] | IC50 Nox1 [2] | IC50 DPPH [3] | IC50 XO [4] | IC50 [5] | IC50 Nox5 [6] | human islet cell death with cytokines [7] | human islet cell death with high glucose+palmitate [7] | IC50 [1] | IC50 [2]
1 | Cc1c(C)c(S(=O)(=O)NCCc2ccccc2Cl)c(C)c2c1OC(C)(C)C2 [Example 9, N-[2-(2-chlorophenyl)ethyl]-2,2,4,6,7-pentamethyl-2,3-dihydro-1-benzofuran-5-sulfonamide] | — | — | — | — | 1600 nM | — |  |  |  | 
2 | O=[N+]([O-])c1cccc(C2Nc3ccc([N+](=O)[O-])cc3C3C=CCC32)c1 (stereo not shown) [Phox-I2] |  |  |  |  |  |  | failed to protect human islets against cytokines | partially protected against high glucose+palmitate |  | 
3 | O=S(=O)(NCCc1ccccc1Cl)c1c(Cl)cc(C(F)(F)F)cc1Cl [Example 27, 2,6-dichloro-N-[2-(2-chlorophenyl)ethyl]-4-(trifluoromethyl)benzene-1-sulfonamide] |  | — | — | — | 1600 nM | — |  |  |  | 
4 | O=S(=O)(NCCc1ccccc1F)c1c(Cl)cc(C2CC2)cc1Cl [Example 25, 2,6-dichloro-4-cyclopropyl-N-[2-(2-fluorophenyl)ethyl]benzene-1-sulfonamide] |  | — | — | — | 1100 nM | — |  |  |  | 
5 | Cc1cc(C)c(S(=O)(=O)NCCc2ccccc2Br)c(C)c1 [Example 7, N-[2-(2-bromophenyl)ethyl]-2,4,6-trimethylbenzene-1-sulfonamide] | — | — |  | — | 270 nM | — |  |  |  | 
6 | Cc1cc(C)c(S(=O)(=O)NCCc2ccccc2C)c(C)c1 [Example 14, 2,4,6-trimethyl-N-[2-(2-methylphenyl)ethyl]benzene-1-sulfonamide] | — | — | — | — | 90 nM | — |  |  |  | 
7 | Cc1c2c(=O)n(-c3ccccc3Cl)[nH]c2cc(=O)n1Cc1ccccn1 [GKT136901, 2-(2-Chlorophenyl)-4-methyl-5-(pyridin-2-ylmethyl)-1H-pyrazolo[4,3-c]pyridine-3,6-dione, reference compound] |  |  | active |  | 1600 nM |  |  |  | 9000 nM | 500 nM
8 | Cc1cc(C)c(S(=O)(=O)NCCc2ccccc2Cl)c(C)c1 [Example 6, N-[2-(2-chlorophenyl)ethyl]-2,4,6-trimethylbenzene-1-sulfonamide] | — | — | — | — | 270 nM | — |  |  |  | 
9 | Cc1ccccc1C(F)CNS(=O)(=O)c1c(Cl)cc(Br)cc1Cl (single isomer, unassigned) [Example 35 (isomer 2), 4-bromo-2,6-dichloro-N-[2-fluoro-2-(2-methylphenyl)ethyl]benzene-1-sulfonamide] | — | — | — | — | 4900 nM | — |  |  |  | 
10 | O=S(=O)(NCCc1ccccc1Cl)c1c(Cl)cc(Br)cc1Cl [Example 20, 4-bromo-2,6-dichloro-N-[2-(2-chlorophenyl)ethyl]benzene-1-sulfonamide] |  | — | — | — | 900 nM | — |  |  |  | 
11 | CC(=O)c1ccc2c(c1)Nc1ccccc1S2 [ML171] |  |  |  |  |  |  | failed to reduce human islet cell death | failed to reduce human islet cell death |  | 
12 | Cc1ccccc1C(F)CNS(=O)(=O)c1c(Cl)cc(Br)cc1Cl (single isomer, unassigned) [Example 35 (isomer 1), 4-bromo-2,6-dichloro-N-[2-fluoro-2-(2-methylphenyl)ethyl]benzene-1-sulfonamide] | — | — | — | — | 1700 nM | — |  |  |  | 
13 | Cc1cc(C)c(S(=O)(=O)NCCc2ccccc2F)c(C)c1 [Example 2, N-[2-(2-fluorophenyl)ethyl]-2,4,6-trimethylbenzene-1-sulfonamide] | — | — | — | — | 2200 nM | — |  |  |  | 

— patent US12202790B2, “Sulfonamide derivatives having selective Nox inhibiting activity” (GLUCOX BIOTECH AB, priority 2018, dated 2025)
